The results in this text go back to patent publication US20220175728A1, “PHARMACEUTICAL USE OF CHLOROPHYLLIDE FOR ANTI-VIRAL INFECTION” (I-SHOU UNIVERSITY, priority 2020, published 2022).

Holding throughout (format): cell-based
For one data set, the system named is chikungunya virus. Nature of the data set: Chikungunya micro-neutralization test. As to conditions: Vero cells, MOI 0.001, 3 days. The protocol: (§1) African green monkey kidney Vero cells were infected with chikungunya virus at an MOI of 0.001 in the presence of chlorophyllide at indicated dosages, and then incubated for 3 days, followed by the micro-neutralization test.

The subject of data set [1] is African green monkey kidney Vero cells. Nature of the data set: Cytotoxicity, control group of chikungunya micro-neutralization test. As to conditions: 3 days. The protocol: as §1
The subject of the next data set is Zika virus. Nature of the data set: Zika micro-neutralization test. As to conditions: Vero cells, MOI 0.1, 4 to 5 days. The protocol:
(§2) African green monkey kidney Vero cells were infected with Zika virus at an MOI of 0.1 in the presence of chlorophyllide at indicated dosages, and then incubated for 4 to 5 days, followed by the micro-neutralization test.

Data set [2] relates to African green monkey kidney Vero cells. Nature of the data set: Cytotoxicity, control group of Zika micro-neutralization test. The note with it: 4 to 5 days. The protocol: as §2

As for chlorophyllide, in the data set on chikungunya virus, the “EC50 for antiviral activity against chikungunya” value was 18.75 mg/L. Moreover, the cytotoxicity dose result in data set [1] and in data set [2] was “greater than 100 μg/mL” throughout. Moreover, the “EC50 for antiviral activity against Zika” value in the data set on Zika virus is 12.5 mg/L.
